Article PMC8563902, “N^1-methyladenosine methylation in tRNA drives liver tumourigenesis by regulating cholesterol metabolism” (Nature Communications, 2021)

Target: TRMT6/TRMT61A complex (Homo sapiens, UniProt Q96FX7+Q9UJA5)
Test: screen for block of TRMT6/TRMT61A interaction in vitro; m1A by LC-MS/MS in treated PLC/PRF/[…] cells
Assay type: cell-based
Details: blocks subunit interaction (method not described); m1A read in cells treated at the proliferation IC50

TRMT6/TRMT61A complex, sequence (Q96FX7 2-289): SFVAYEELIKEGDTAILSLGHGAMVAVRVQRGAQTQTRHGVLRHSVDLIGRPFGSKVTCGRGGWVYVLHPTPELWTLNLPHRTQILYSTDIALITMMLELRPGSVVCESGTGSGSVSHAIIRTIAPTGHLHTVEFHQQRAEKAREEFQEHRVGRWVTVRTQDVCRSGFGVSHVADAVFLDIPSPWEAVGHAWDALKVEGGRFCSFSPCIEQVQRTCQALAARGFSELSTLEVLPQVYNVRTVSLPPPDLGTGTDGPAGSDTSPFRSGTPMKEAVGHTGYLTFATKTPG
TRMT6/TRMT61A complex, sequence (Q9UJA5 whole entry): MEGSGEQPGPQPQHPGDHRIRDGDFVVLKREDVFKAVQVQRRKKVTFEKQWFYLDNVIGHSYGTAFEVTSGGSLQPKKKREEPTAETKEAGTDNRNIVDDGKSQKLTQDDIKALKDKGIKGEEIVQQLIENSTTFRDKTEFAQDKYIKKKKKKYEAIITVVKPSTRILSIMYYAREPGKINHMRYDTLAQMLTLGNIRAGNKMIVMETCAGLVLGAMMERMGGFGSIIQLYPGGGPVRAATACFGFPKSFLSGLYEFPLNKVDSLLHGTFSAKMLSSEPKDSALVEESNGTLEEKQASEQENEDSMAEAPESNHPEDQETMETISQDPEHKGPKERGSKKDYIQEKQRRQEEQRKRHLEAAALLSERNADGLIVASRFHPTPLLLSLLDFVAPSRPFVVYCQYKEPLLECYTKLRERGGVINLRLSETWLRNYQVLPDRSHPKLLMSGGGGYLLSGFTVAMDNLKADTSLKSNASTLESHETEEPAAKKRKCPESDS

## CN(C)C(=S)SSC(=S)N(C)C [thiram]
  screen for block of TRMT6/TRMT61A interaction in vitro; m1A by LC-MS/MS in treat: thiram acts as an efficient inhibitor against TRMT6/TRMT61A complex
